One assay has as its target T1, rat CB2 receptor (Rattus norvegicus, UniProt Q9QZN9).
T1 sequence (Q9QZN9 1-360): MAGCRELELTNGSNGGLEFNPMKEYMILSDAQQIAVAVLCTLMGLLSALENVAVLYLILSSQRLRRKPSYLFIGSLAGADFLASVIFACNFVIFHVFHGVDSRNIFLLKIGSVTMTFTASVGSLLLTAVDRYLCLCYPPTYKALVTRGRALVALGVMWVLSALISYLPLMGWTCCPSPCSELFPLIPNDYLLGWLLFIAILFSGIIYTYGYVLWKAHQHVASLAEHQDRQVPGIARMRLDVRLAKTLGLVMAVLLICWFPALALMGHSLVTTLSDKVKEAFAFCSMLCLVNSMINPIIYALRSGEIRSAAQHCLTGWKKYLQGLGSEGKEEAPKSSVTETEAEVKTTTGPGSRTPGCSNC
Description: cell-based. The assay is classed as cell-based.

A further assay deals with human CB1 receptor (Homo sapiens, UniProt P21554). The assay is described as follows: cell-based.

Bounds are passed on as bounds.

Usually EC50 stands for the concentration at which the effect is half-maximal. Lower therefore signals an effect from little substance.

Chain of human CB1 receptor (P21554 whole entry): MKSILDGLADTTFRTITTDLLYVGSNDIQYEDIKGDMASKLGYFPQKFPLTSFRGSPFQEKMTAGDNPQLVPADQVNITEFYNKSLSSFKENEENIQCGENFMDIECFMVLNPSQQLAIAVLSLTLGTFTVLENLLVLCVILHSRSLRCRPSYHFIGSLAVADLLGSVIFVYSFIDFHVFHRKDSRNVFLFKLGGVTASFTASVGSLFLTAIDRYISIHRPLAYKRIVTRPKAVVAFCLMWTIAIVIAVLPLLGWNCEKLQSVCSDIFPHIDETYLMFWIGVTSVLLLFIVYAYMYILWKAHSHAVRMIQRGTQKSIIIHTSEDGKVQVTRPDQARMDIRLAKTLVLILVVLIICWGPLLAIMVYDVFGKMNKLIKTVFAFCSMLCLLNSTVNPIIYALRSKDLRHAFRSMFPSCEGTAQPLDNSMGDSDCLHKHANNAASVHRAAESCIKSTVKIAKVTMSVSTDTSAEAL

Regarding `CC(C)(CO)NC(=O)c1cnc2c(c1)N(S(=O)(=O)c1ccc(Cl)c(Cl)c1)CCO2` [Example 95, 1-(3,4-dichlorophenylsulfonyl)-N-(1-hydroxy-2-methylpropan-2-yl)-2,3-dihydro-1H-pyrido[2,3-b][1,4]oxazine-7-carboxamide], the EC50 at rat CB2 receptor is not above 0.03 µM; on human CB1 receptor, more than 30 µM.

Consider `CC(C)(C)NC(=O)c1cnc2c(c1)N(S(=O)(=O)c1cccc(C(F)(F)F)c1)CCO2` [Example 83, N-tert-butyl-1-(3-(trifluoromethyl)phenylsulf-onyl)-2,3-dihydro-1H-pyrido[2,3-b][1,4]oxazine-7-carboxamide], for which the concentration for a half-maximal effect (EC50) is not above 0.03 µM at rat CB2 receptor and more than 30 µM at human CB1 receptor.

On to `O=C(NC1CCCC1)c1cnc2c(c1)N(S(=O)(=O)c1ccc(C(F)(F)F)cc1)CCO2` [Example 27, N-cyclopentyl-1-(4-(trifluoromethyl)phenylsulf-onyl)-2,3-dihydro-1H-pyrido[2,3-b][1,4]oxazine-7-carboxamide], for which the values for the EC50 at rat CB2 receptor and on human CB1 receptor were not above 0.03 µM and more than 30 µM, respectively.

As for `COCC1CCCCN1C(=O)c1cnc2c(c1)N(S(=O)(=O)c1ccc(C(F)(F)F)cc1)CCO2` (racemic) [Example 74, +/− (2-(methoxymethyl)-piperidin-1-yl)(1-(4-(trifluoromethyl)phenylsulf-onyl)-2,3-dihydro-1H-pyrido[2,3-b][1,4]oxazin-7-yl)methanone], the EC50 on rat CB2 receptor was not above 0.03 µM; on human CB1 receptor, more than 30 µM.

As for `O=S(=O)(c1ccccc1)N1CCOc2ncc(-c3nnc(-c4ccccc4)o3)cc21` [Example 211, 7-(5-phenyl-1,3,4-oxadiazol-2-yl)-1-(phenylsulfonyl)-2,3-dihydro-1H-pyrido[2,3-b][1,4]oxazine], on rat CB2 receptor (asterisk at the compound number), the “inverse agonist mark, rat CB2 receptor” value was 181, 188, 189, 190, 195, 200, 201, 202, 204, 211*, 214*, 220, 221,. Besides, the EC50 on human CB1 receptor is more than 30 µM.

Regarding `CC1(C)CN=C(c2cnc3c(c2)N(S(=O)(=O)c2ccc(C(F)(F)F)cc2)CCO3)NC1` [Example 225, 7-(5,5-dimethyl-1,4,5,6-tetrahydropyrimidin-2-yl)-1-(4-(trifluoromethyl)phenylsulfonyl)-2,3-dihydro-1H-pyrido[2,3-b][1,4]oxazine], the EC50 on rat CB2 receptor and at human CB1 receptor was more than 30 µM in each case.

Turning to `CC(C)(C)NC(=O)c1cnc2c(c1)N(S(=O)(=O)NCc1ccccc1)CCO2` [Example 178, 1-(N-benzylsulfamoyl)-N-tert-butyl-2,3-dihydro-1H-pyrido[2,3-b][1,4]oxazine-7-carboxamide], the EC50 at rat CB2 receptor is not above 0.03 µM; at human CB1 receptor it was more than 30 µM.

For `CCC(C)(C)NC(=O)c1cnc2c(c1)N(S(=O)(=O)N1CCC(C)CC1)CCO2` [Example 171, 1-(4-methylpiperidin-1-ylsulfonyl)-N-tert-pentyl-2,3-dihydro-1H-pyrido[2,3-b][1,4]oxazine-7-carboxamide], the concentration for a half-maximal effect (EC50) on rat CB2 receptor is not above 0.03 µM; at human CB1 receptor it was more than 30 µM.

As to `Cc1ccc(S(=O)(=O)N2CCOc3ncc(C(=O)NC(C)(C)C)cc32)s1` [Example 59, N-tert-butyl-1-(5-methylthiophen-2-ylsulfonyl)-2,3-dihydro-1H-pyrido[2,3-b][1,4]oxazine-7-carboxamide], the concentration for a half-maximal effect (EC50) at rat CB2 receptor is not above 0.03 µM; at human CB1 receptor, more than 30 µM.

Regarding `CC(C)(CO)CNC(=O)c1cnc2c(c1)N(S(=O)(=O)N1CCC(F)CC1)CCO2` [Example 169, 1-(4-fluoropiperidin-1-ylsulfonyl)-N-(3-hydroxy-2,2-dimethylpropyl)-2,3-dihydro-1H-pyrido[2,3-b][1,4]oxazine-7-carboxamide], the half-maximal effective concentration (EC50) was not above 0.03 µM at rat CB2 receptor and more than 30 µM at human CB1 receptor.

As to `CC(C)CNS(=O)(=O)N1CCOc2ncc(C(=O)NCC(C)(C)CO)cc21` [Example 182, N-(3-hydroxy-2,2-dimethylpropyl)-1-(N-isobutylsulfamoyl)-2,3-dihydro-1H-pyrido[2,3-b][1,4]oxazine-7-carboxamide], the 50% effective concentration (EC50) is not above 0.03 µM on rat CB2 receptor and more than 30 µM at human CB1 receptor.

With `C[C@@H]1CCC[C@H](C)N1C(=O)c1cnc2c(c1)N(S(=O)(=O)c1ccc(C(F)(F)F)cc1)CCO2` [Example 197, (cis-2,6-dimethylpiperidin-1-yl)(1-(4-(trifluoromethyl)phenylsulf-onyl)-2,3-dihydro-1H-pyrido[2,3-b][1,4]oxazin-7-yl)methanone], the EC50 on rat CB2 receptor is not above 0.03 µM; on human CB1 receptor, more than 30 µM.

As to `CCc1noc(-c2cnc3c(c2)N(S(=O)(=O)c2ccccc2)CCO3)n1` [Example 210, 7-(3-ethyl-1,2,4-oxadiazol-5-yl)-1-(phenylsulfonyl)-2,3-dihydro-1H-pyrido[2,3-b][1,4]oxazine], the EC50 is not above 0.03 µM at rat CB2 receptor and more than 30 µM at human CB1 receptor.

For `CC(C)(O)CNC(=O)c1cnc2c(c1)N(S(=O)(=O)c1ccc(Cl)cc1F)CCO2` [Example 97, 1-(4-chloro-2-fluorophenylsulfonyl)-N-(2-hydroxy-2-methylpropyl)-2,3-dihydro-1H-pyrido[2,3-b][1,4]oxazine-7-carboxamide], the concentration for a half-maximal effect (EC50) was not above 0.03 µM at rat CB2 receptor and more than 30 µM on human CB1 receptor.

As to `CC(C)(C)NC(=O)c1cnc2c(c1)N(S(=O)(=O)N1CCC(F)CC1)CCO2` [Example 166, N-tert-butyl-1-(4-fluoropiperidin-1-ylsulfonyl)-2,3-dihydro-1H-pyrido[2,3-b][1,4]oxazine-7-carboxamide], the results for the EC50 on rat CB2 receptor and on human CB1 receptor were not above 0.03 µM and more than 30 µM, respectively.

For the compound `CC(C)(C)NC(=O)c1cnc2c(c1)N(S(=O)(=O)N1CCOCC1)CCO2` [Example 140, N-tert-butyl-1-(morpholinosulfonyl)-2,3-dihydro-1H-pyrido[2,3-b][1,4]oxazine-7-carboxamide], the EC50 on rat CB2 receptor is not above 0.03 µM; on human CB1 receptor, more than 30 µM.

As to `CC(C)(CO)NC(=O)c1cnc2c(c1)N(S(=O)(=O)c1ccc(Cl)cc1F)CCO2` [Example 96, 1-(4-chloro-2-fluorophenylsulfonyl)-N-(1-hydroxy-2-methylpropan-2-yl)-2,3-dihydro-1H-pyrido[2,3-b][1,4]oxazine-7-carboxamide], the figures for the EC50 on rat CB2 receptor and at human CB1 receptor were not above 0.03 µM and more than 30 µM, respectively.

Consider `CC(C)(CO)NC(=O)c1cnc2c(c1)N(S(=O)(=O)c1ccc(F)c(Cl)c1)CCO2` [Example 99, 1-(3-chloro-4-fluorophenylsulfonyl)-N-(1-hydroxy-2-methylpropan-2-yl)-2,3-dihydro-1H-pyrido[2,3-b][1,4]oxazine-7-carboxamide], for which the EC50 was not above 0.03 µM at rat CB2 receptor and more than 30 µM at human CB1 receptor.

As to `O=C(NC1CCCC1)c1cnc2c(c1)N(S(=O)(=O)c1cccc(F)c1)CCO2` [Example 21, N-cyclopentyl-1-(3-fluorophenylsulfonyl)-2,3-dihydro-1H-pyrido[2,3-b][1,4]oxazine-7-carboxamide], the results for the half-maximal effective concentration (EC50) on rat CB2 receptor and on human CB1 receptor were not above 0.03 µM and more than 30 µM, respectively.

In the case of `CC1CCN(S(=O)(=O)N2CCOc3ncc(C(=O)NC(C)(C)CO)cc32)CC1` [Example 172, N-(1-hydroxy-2-methylpropan-2-yl)-1-(4-methylpiperidin-1-ylsulfonyl)-2,3-dihydro-1H-pyrido[2,3-b][1,4]oxazine-7-carboxamide], the values for the 50% effective concentration (EC50) at rat CB2 receptor and on human CB1 receptor were not above 0.03 µM and more than 30 µM, respectively.

For `CC(C)(C)NC(=O)c1cnc2c(c1)N(S(=O)(=O)c1ccsc1)CCO2` [Example 90, N-tert-butyl-1-(thiophen-3-ylsulfonyl)-2,3-dihydro-1H-pyrido[2,3-b][1,4]oxazine-7-carboxamide], the EC50 on rat CB2 receptor was not above 0.03 µM; at human CB1 receptor, more than 30 µM.

(Values after US7960377B2 (priority 2008, dated 2011).)
